# Biological target: T1, PAD4 enzyme (Homo sapiens (Human), UniProt Q9UM07)
# Experiment: Ammonia Release Biochemical Assay (citrullination detected via ammonia release)
# Conditions: BAEE substrate, 60-min preincubation, read-out: NH3 release
# Method: Ammonia Release Biochemical Assay
# Citrullination assay was detected via ammonia release. PAD4 enzyme was diluted to 120 nM in assay buffer (100 mM HEPES, 50 mM NaCl, 2 mM DDT, 0.6 mg/mL BSA, pH 7.4) added to wells containing various concentration of compound or DMSO vehicle (1% final) in black 384 well plate. Following a 60-min preincubation at room temperature, the reaction was initiated by the addition of substrate (1.5 mM BAEE in 200 mM HEPES, 50 mM NaCl, 350 uM CaCl2, 2 mM, pH 7.4). The reaction was stopped after 60 min by addition of stop/detection buffer containing 50 mM EDTA, 2.6 mM of o-phthaladehyde and 2.6 mM DTT. Assay was incubated at room temperature for 90 min before measuring fluorescence's (2ex 405/2em 460 nm) on Tecan reader. IC50 was calculated using XL-fit software model 205. (Ref: Nat Chem Biol. 2015 March;11 (3): 189-91).
# T1 sequence (Q9UM07 whole entry): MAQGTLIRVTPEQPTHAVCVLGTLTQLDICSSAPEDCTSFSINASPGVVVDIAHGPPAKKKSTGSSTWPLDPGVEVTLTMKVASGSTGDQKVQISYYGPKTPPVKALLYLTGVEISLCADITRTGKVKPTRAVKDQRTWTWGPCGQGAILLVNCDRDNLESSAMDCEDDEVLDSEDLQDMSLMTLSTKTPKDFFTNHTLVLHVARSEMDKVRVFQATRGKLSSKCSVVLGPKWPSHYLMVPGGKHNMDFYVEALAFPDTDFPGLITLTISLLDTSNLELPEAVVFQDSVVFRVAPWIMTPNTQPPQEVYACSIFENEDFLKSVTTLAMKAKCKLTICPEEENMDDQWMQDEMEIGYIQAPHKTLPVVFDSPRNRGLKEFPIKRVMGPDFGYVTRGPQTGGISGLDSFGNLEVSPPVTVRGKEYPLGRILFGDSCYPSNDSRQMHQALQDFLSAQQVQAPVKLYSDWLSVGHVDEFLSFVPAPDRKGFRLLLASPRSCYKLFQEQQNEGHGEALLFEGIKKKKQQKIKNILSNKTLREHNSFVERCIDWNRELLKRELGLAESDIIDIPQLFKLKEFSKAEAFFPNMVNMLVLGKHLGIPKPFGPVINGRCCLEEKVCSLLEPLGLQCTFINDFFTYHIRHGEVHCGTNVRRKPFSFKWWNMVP
row,IC50 [nM],SMILES
1,≤ 1000,"N[C@@H]1CCCN(C(=O)c2cc3c4c(c2)nc(-c2cc5ccccc5n2CC2CC2)n4CCO3)C1 [Example 1, (R)-(3-aminopiperidin-1-yl)(2-(1-(cyclopropylmethyl)-1H-indol-2-yl)-3,4-dihydro-5-oxa-1,2a-diazaacenaphthylen-7-yl)methanone]"
2,≤ 1000,"COc1ccc(Cn2c(-c3nc4cc(C(=O)N5CCC[C@@H](N)C5)cc5c4n3CCO5)cc3cccc(Cl)c32)cc1 [Example 39, (R)-(3-aminopiperidin-1-yl)(2-(7-chloro-1-(4-methoxybenzyl)-1H-indol-2-yl)-3,4-dihydro-5-oxa-1,2a-diazaacenaphthylen-7-yl)methanone]"
3,≤ 1000,"N[C@@H]1CCCN(C(=O)c2cc3c4c(c2)nc(-c2cc5ccccc5n2CC2CCC2)n4CCO3)C1 [Example 41, (R)-(3-aminopiperidin-1-yl)(2-(1-(cyclobutylmethyl)-1H-indol-2-yl)-3,4-dihydro-5-oxa-1,2a-diazaacenaphthylen-7-yl)methanone]"
4,≤ 1000,"N[C@@H]1CCCN(C(=O)c2cc3c4c(c2)nc(-c2cc5cccc(Cl)c5n2CC2CCC2)n4CCO3)C1 [Example 53, (R)-(3-aminopiperidin-1-yl)(2-(7-chloro-1-(cyclobutylmethyl)-1H-indol-2-yl)-3,4-dihydro-5-oxa-1,2a-diazaacenaphthylen-7-yl)methanone]"

# Biological target: T1, PAD4 enzyme
# Experiment: FP Binding assay
# Conditions: fluorescein labelled probe JPAD-00085, 60 minutes
# Method: Binding of compounds with PAD4 enzyme was detected by FP assay. PAD4 enzyme was diluted to 1 uM in assay buffer (100 mM HEPES, 50 mM NaCl, 1 mM DTT, 5% Glycerol and 1 mM CHAPS) and added to wells containing various concentration of compounds or DMSO vehicle (1%) in a 384 well black plate. 10 nM of fluorescein labelled probe (JPAD-00085) was added to the plate. Assay plate was incubated for 60 minutes at room temperature before measuring FP reading at FP module (ex 485/2em 535 nm) on Pherastar. IC50 was calculated using XL-fit software model 205. (Ref: Nat Chem Biol. 2015 March; 11 (3): 189-91).
row,SMILES,IC50 [nM]
1,"NCC1CCCCN1C(=O)c1cc2c3c(c1)nc(-c1cc4ccccc4n1CC1CC1)n3CCO2 (stereo not shown) [Example 4, (2-(aminomethyl)piperidin-1-yl)(2-(1-(cyclopropylmethyl)-1H-indol-2-yl)-3,4-dihydro-5-oxa-1,2a-diazaacenaphthylen-7-yl)methanone]",≥ 10000
2,"N[C@@H]1CCCN(C(=O)c2cc3c4c(c2)nc(-c2cc5cc(F)c(F)cc5n2CC2CC2)n4CCN3)C1 [Example 77, (R)-(3-aminopiperidin-1-yl)(2-(1-(cyclopropylmethyl)-5,6-difluoro-1H-indol-2-yl)-5,6-dihydro-4H-imidazo[1,5,4-de]quinoxalin-8-yl)methanone]",≤ 1000

# Other lines, results leading:
row,IC50 [nM],SMILES
1,≤ 1000,"Cc1cccc2cc(-c3nc4cc(C(=O)N5CCC[C@@H](N)C5)cc5c4n3CCO5)n(CC3CC3)c12 [Example 8, (R)-(3-aminopiperidin-1-yl)(2-(1-(cyclopropylmethyl)-7-methyl-1H-indol-2-yl)-3,4-dihydro-5-oxa-1,2a-diazaacenaphthylen-7-yl)methanone]"
2,≤ 1000,"N[C@@H]1CCCN(C(=O)c2cc3c4c(c2)nc(-c2cc5ccccc5n2Cc2ccncc2)n4CCO3)C1 [Example 10, (R)-(3-aminopiperidin-1-yl)(2-(1-(pyridin-4-ylmethyl)-1H-indol-2-yl)-3,4-dihydro-5-oxa-1,2a-diazaacenaphthylene-7-yl)methanone]"
3,≤ 1000,"N[C@@H]1CCCN(C(=O)c2cc3c4c(c2)nc(-c2cc5ccccc5n2Cc2ccccn2)n4CCO3)C1 [Example 11, (R)-(3-aminopiperidin-1-yl)(2-(1-(pyridine-2-ylmethyl)-1H-indol-2-yl)-3,4-dihydro-5-oxa-1,2a-diazaacenaphthylen-7-yl)methanone]"
4,≤ 1000,"CCc1c(-c2nc3cc(C(=O)N4CCC[C@@H](N)C4)cc4c3n2CCO4)sc2ccccc12 [Example 12, (R)-(3-aminopiperidin-1-yl)(2-(3-ethylbenzo[b]thiophen-2-yl)-3,4-dihydro-5-oxa-1,2a-diazaacenaphthylen-7-yl)methanone]"
5,≤ 1000,"N[C@@H]1CCCN(C(=O)c2cc3c4c(c2)nc(-c2cc5ccccc5n2Cc2ccccc2F)n4CCO3)C1 [Example 14, (R)-(3-aminopiperidin-1-yl)(2-(1-(2-fluorobenzyl)-1H-indol-2-yl)-3,4-dihydro-5-oxa-1,2a-diazaacenaphthylene-7-yl)methanone]"
6,≤ 1000,"COc1ccc(Cn2c(-c3nc4cc(C(=O)N5CCC[C@@H](N)C5)cc5c4n3CCO5)cc3ccccc32)cc1 [Example 19, (R)-(3-aminopiperidin-1-yl)(2-(1-(4-methoxybenzyl)-1H-indol-2-yl)-3,4-dihydro-5-oxa-1,2a-diazaacenaphthylen-7-yl)methanone]"
7,≤ 1000,"N[C@@H]1CCCN(C(=O)c2cc3c4c(c2)nc(-c2cc5ccccc5n2CC2CC2)n4CCN3)C1 [Example 63, (R)-(3-aminopiperidin-1-yl)(2-(1-(cyclopropylmethyl)-1H-indol-2-yl)-5,6-dihydro-4H-imidazo[1,5,4-de]quinoxalin-8-yl)methanone]"
8,≤ 1000,"N[C@@H]1CCCN(C(=O)c2cc3c4c(c2)nc(-c2cc5cc(F)ccc5n2CC2CC2)n4CCN3)C1 [Example 64, R-(3-aminopiperidin-1-yl)(2-(1-(cyclopropylmethyl)-5-fluoro-1H-indol-2-yl)-5,6-dihydro-4H-imidazo[1,5,4-de]quinoxalin-8-yl)methanone]"
9,≤ 1000,"CN1CCn2c(-c3cc4ccccc4n3CC3CC3)nc3cc(C(=O)N4CCC[C@@H](N)C4)cc1c32 [Example 72, R-(3-aminopiperidin-1-yl)(2-(1-(cyclopropylmethyl)-1H-indol-2-yl)-6-methyl-5,6-dihydro-4H-imidazo[1,5,4-de]quinoxalin-8-yl)methanone]"
10,≤ 1000,"COc1ccc2cc(-c3nc4cc(C(=O)N5CCC[C@@H](N)C5)cc5c4n3CCN5)n(CC3CC3)c2c1 [Example 73, (R)-(3-aminopiperidin-1-yl)(2-(1-(cyclopropylmethyl)-6-methoxy-1H-indol-2-yl)-5,6-dihydro-4H-imidazo[1,5,4-de]quinoxalin-8-yl)methanone]"
